Key:
[1] = tested on: Entamoeba histolytica; experiment: MMV: Primary screening was performed with each compound at a 30 uM final concentration and in triplicate in sealed 96-well polystyrene microtiter plates. Parasite inocula (100 ul) comprising 20000 parasites/ml were added to each well and grown at 37 degrees C in a humidified atmosphere of 5% CO2 for 72 h. Positive controls consisted of metronidazole at 1 mg/ml. The growth of E. histolytica trophozoites in each well was determined microscopically by measuring the diameters of the confluent cells in drug-containing wells relative to those in the nega- tive-control wells.; type: functional, organism-based
[2] = tested on: Toxoplasma gondii; experiment: MMV: A total of 100ul of inoculum was added to each well (parasite/cell ratio, ~10:1; final volume, 200 ul). Six hours after inoculation, nonadherent parasites were removed, and 100 ul of complete DMEM (1% penicillin-streptomycin, 3% FBS) supplemented with inhibitors at different concentrations (2-fold serial dilutions starting from 30 uM) was added to all except the negative-control wells. Positive controls, consisting of pyrimethamine (PYR) and sulfadiazine (SDZ) (20-mg/ml stocks in DMSO), were tested at a 2mg/ml final concentration. Each test was performed in triplicate.; type: functional, organism-based; settings: 6 h

| Structure (SMILES) | IC50 [1] | IC50 [2] |
| --- | --- | --- |
| O=C(Nc1ccc(Cl)c(Cl)c1)Nc1ccc(Cl)c(Cl)c1 | > 30 µM | > 30 µM |
| COc1ccc(Nc2nc(N/N=C/c3ccc(O)cc3)nc(Nc3ccc([N+](=O)[O-])cc3)n2)cc1 | > 30 µM | > 30 µM |
| N=c1n(CCN2CCCCC2)c2ccccc2n1CC(=O)c1ccc(Cl)c(Cl)c1 | > 30 µM | > 30 µM |
| COc1ccc(-c2nc(N3CCN(C(=O)C4CCCCC4)CC3)c3c4c(sc3n2)CCCC4)cc1 | > 30 µM | > 30 µM |
| Cc1sc(NC(=O)c2ccco2)c(C(c2cccnc2)N2CCC(Cc3ccccc3)CC2)c1C (stereo not given) | > 30 µM | > 30 µM |
| COc1cc(C(=O)Nc2nc3c(cc4c5c(cccc53)CC4)s2)cc(OC)c1OC | > 30 µM | > 30 µM |
| COc1ccc(CCN2C(=O)c3[nH]nc(-c4cc(Cl)c(C)cc4O)c3C2c2ccccc2F)cc1 (stereo not given) | > 30 µM | > 30 µM |
| O=C(NNc1cc(N2CCCC2)nc(N2CCCC2)n1)c1ccccc1 | > 30 µM | > 30 µM |
| COC(=O)c1ccc(Cl)c2c1C1C=CCC1C(c1cccc3ccccc13)N2 (stereo not given) | > 30 µM | > 30 µM |
| O=C(CCc1ccccc1)c1ccccc1OCC(O)CN1CCCCC1 (stereo not given) | > 30 µM | > 30 µM |
| OC1=C2C(=Nc3ccccc3SC2c2ccccc2)c2ccccc21 (stereo not given) | > 30 µM | > 30 µM |
| COc1cc(C(=O)Nc2ccc(-c3nc4ccccc4[nH]3)cc2)cc(OC)c1OC | > 30 µM | > 30 µM |
| COC(=O)c1ccc(C2C3=C(O)CC(c4ccc(F)cc4)CC3=Nc3ccccc3N2C(=O)c2ccccc2)cc1 (stereo not given) | > 30 µM | > 30 µM |
| CCOc1ccc(CN2CCN(CC(O)COc3ccc(OCC(O)CN4CCN(Cc5ccc(OCC)cc5)CC4)cc3)CC2)cc1 (stereo not given) | > 30 µM | > 30 µM |
| CCCCNc1nc(NC(C)(C)C)nc(NC(C)(C)C)n1 | > 30 µM | > 30 µM |
| CC(=O)c1sc(NC(=O)Nc2ccc(C)cc2C)nc1C | > 30 µM | > 30 µM |
| Cn1c(C(=O)c2cccc3ccccc23)nc2ccccc21 | > 30 µM | > 30 µM |
| Oc1ccc2ccccc2c1CNc1nc2ccccc2[nH]1 | > 30 µM | > 30 µM |

| Structure (SMILES) | IC50 [1] | IC50 [2] |
| --- | --- | --- |
| O=C(Nc1ccc(-c2nc3ccccc3[nH]2)cc1)c1ccc(Cl)c(Cl)c1 | > 30 µM | > 30 µM |
| OCCNc1nc(Nc2ccc(Cl)c(Cl)c2)nc2ccccc12 | > 30 µM | > 30 µM |
| Nc1ccc(-c2nc3cc(Oc4ccc(Oc5ccc6[nH]c(-c7ccc(N)cc7)nc6c5)cc4)ccc3[nH]2)cc1 | > 30 µM | > 30 µM |
| Cc1cc(N(C)C)nc(Nc2ccc(NC(=O)Nc3ccccc3)cc2)n1 | > 30 µM | > 30 µM |
| COc1cc(C(=O)ON=C(N)Cc2cccc3ccccc23)cc(OC)c1OC | > 30 µM | > 30 µM |
| Oc1c(C(Nc2ccccn2)c2cccc(Oc3ccccc3)c2)ccc2cccnc12 (stereo not given) | > 30 µM | > 30 µM |
| COc1cc(-c2nc(-c3ccccc3)c(-c3ccccc3)[nH]2)cc(OC)c1O | > 30 µM | > 30 µM |
| Cc1ccc(Nc2nc(N)c3ccccc3n2)cc1Cl | > 30 µM | > 30 µM |
| CCc1ccc(CNCC(O)c2ccccc2)cc1 (stereo not given) | > 30 µM | > 30 µM |
| CCn1c2c(c(=N)c3c1CCC3)CCCC2 | > 30 µM | > 30 µM |
| Cc1ccc2c(C)nc(Nc3nc(C)cc(-c4ccccc4)n3)nc2c1 | > 30 µM | > 30 µM |
| CCOc1ccc(Nc2ccnc3cc(Cl)ccc23)cc1 | > 30 µM | > 30 µM |
| Cc1ccc(C)c(-c2csc(Nc3ccc(C)c(C)c3)n2)c1 | > 30 µM | > 30 µM |
| CCCn1c(=N)c(C(=O)NC2CCCCC2)cc2c(=O)n3cccc(C)c3nc21 | > 30 µM | > 30 µM |
| Nc1ccn([C@@H]2O[C@H](CO)[C@@H](O)[C@H]2O)c(=O)n1 [CYTIDINE] | > 30 µM | > 30 µM |
| O=C(Nc1cccc(C2=NCCN2)c1)Nc1cccc(C2=NCCN2)c1 [IMIDOCARB] | > 30 µM | > 30 µM |
| CN(C)c1ccc(C(O)(c2ccc(N(C)C)cc2)c2ccc(N(C)C)cc2)cc1 [METHYLROSANILINE] | > 30 µM | > 30 µM |

Source: ChEMBL document CHEMBL3301448, “MMV Malaria Box screening against Toxoplasma gondii and Entamoeba histolytica”
